Measurements published in publication PMC12670408, “Backbone Alterations in Cyclic Peptides Influence Both Membrane Permeability and Biological Activity” (Journal of Medicinal Chemistry, 2025).
Where two headings read alike, the source gives them in different places. Numbered stars: 1 amine (or outer) side, 2 acyl side, 3 side chain; on linkers, the order of the positions; unused ones are H or OH. Square brackets hold non-standard residues; d marks the D form. Peptide text beside a SMILES is read from it. Ile(ψThz) = CC[C@H](C)[C@H](N[*:1])c1nc(C(=O)[*:2])cs1

What was measured:
[1] = Variable-temperature 1H-NMR of amide protons; assay type: physicochemical
Method: The solvent exposure of peptide backbone NH groups can be studied using variable temperature ^1H-NMR experiments, where the change in chemical shift of the amide protons is observed upon increasing temperature. […] These experiments were performed for compounds SA-A1, SA-B1, SA-B2, and SA-B3 in both DMSO-d6, as a mimic of a polar environment, and CDCl3, as a mimic of the hydrophobic membrane environment (Figures S2–S9, and Tables and ). […] For SA-B3 the Ile-6 amide was also more exposed to solvent, but the change in Phe-2 shift was much smaller.
Variable-temperature nuclear magnetic resonance (VT-NMR) measurements were conducted using a Bruker Avance Neo 600 (av600) spectrometer equipped with a CP2.1 TMO 600 S3 cryoprobe. The ^1H NMR data was collected over a temperature range from 293.15 to 323.15 K, with temperature increments of 5 °C.

[2] = system: U2OS cells; assay: Cell painting assay (induction, cell count); assay type: cell-based
Method: Therefore, we subjected our set of compounds to the cell painting assay that is agnostic toward specific biological targets. In our cell-painting setup, the compounds were tested at different concentrations (10, 30, and 50 μM) in U2OS cells followed by treatment with dyes for mitochondria (Mito Tracker Deep Red), endoplasmic reticulum (concanavalin-Alexa488 conjugate), actin, (Phalloidin-Alexa594 conjugate), DNA (Hoechst 33342), nucleoli and cytoplasmic RNA (SYTO 14), and Golgi and plasma membranes (WGA-Alexa594 conjugate). Next, the cells were imaged in various channels at 9 sites per well and a total of 579 morphological parameters were extracted. An induction score was calculated from this analysis, which represents the number of parameters for which the change was significant in comparison to the DMSO control.
The described assay follows closely the method described by Bray et al.
Initially, 5 μL U2OS medium were added to each well of a 384-well plate (Revvity PhenoPlate 384). Subsequently, U2OS cell were seeded with a density of 1600 cells per well in 20 μL medium. The plate was incubated for 10 min at ambient temperature, followed by an additional 4 h incubation (37 °C, 5% CO2). […] Incubation with compound was performed for 20 h (37 °C, 5% CO2). Subsequently, mitochondria were stained with Mito Tracker Deep Red (Thermo Fisher Scientific, Cat. No. M22426). The Mito Tracker Deep Red stock solution (1 mM) was diluted to a final concentration of 100 nM in prewarmed medium. The medium was removed from the plate leaving 10 μL residual volume and 25 μL of the Mito Tracker solution were added to each well. The plate was incubated for 30 min in darkness (37 °C, 5% CO2). To fix the cells 7 μL of 18.5% formaldehyde in PBS were added, resulting in a final formaldehyde concentration of […]. Subsequently, the plate was incubated for another 20 min in darkness (RT) and washed three times with 70 μL of PBS. (Agilent Washer Elx405). Cells were permeabilized by addition of 25 μL 0.1% Triton X-100 to each well, followed by 15 min incubation (RT) in darkness. The cells were washed three times with PBS leaving a final volume of 10 μL. To each well 25 μL of a staining solution were added, which contains 1% BSA, 5 μL/ml Phalloidin (Alexa594 conjugate, Thermo Fisher Scientific, A12381), 25 μg/mL Concanavalin A (Alexa488 conjugate, Thermo Fisher Scientific, Cat. No. C11252), 5 μg/mL Hoechst 33342 (Sigma, Cat. No. B2261–25 mg), 1.5 μg/mL WGA-Alexa594 conjugate (Thermo Fisher Scientific, Cat. No. W11262) and 1.5 μM SYTO 14 solution (Thermo Fisher Scientific, Cat. No. S7576). The plate is incubated for 30 min (RT) in darkness and washed three times with 70 μL PBS. After the final washing step, the PBS was not aspirated. The plates were sealed and centrifuged for 1 min at 50g.
The generated images were processed with the CellProfiler package (https://cellprofiler.org/, version 3.0.0) on a computing cluster of the Max Planck Society to extract 1716 cell features per microscope site. The data was then further aggregated as medians per well (9 sites → 1 well), then over the three replicates.
From the total set of 1716 features, a subset of highly reproducible and robust features was determined using the procedure described by Woehrmann et al. in the following way: Two biological repeats of one plate containing reference compounds were analyzed. For every feature, its full profile over each whole plate was calculated.
The phenotypic profiles were compiled from the Z-scores of all individual cellular features, where the Z-score is a measure of how far away a data point is from a median value.

[3] = cited from earlier work
[4] = set-up: method as in Nielsen et al.; details: D2O (10%)/DMSO-d6 (90%), value in brackets, ref Nielsen et al.; cited from earlier work
[5] = set-up: method as in Fairlie group; details: ref Fairlie group; cited from earlier work
[6] = CHI-IAM chromatography (immobilized artificial membrane); assay type: physicochemical; details: IAM.PC.DD2 column, ammonium acetate buffer pH 7.4
From the text: With all peptides in hand we first set out to estimate their passive membrane permeability using the immobilized artificial membrane (IAM) chromatography technique. , An IAM column is packed with a reverse phase like material modified with phospholipids to mimic a cellular membrane. After analysis of a compound its retention time is compared to a set of calibration compounds to yield a CHI-IAM value. A higher value indicates a stronger membrane interaction, which can be correlated to passive membrane permeability.
CHI-IAM chromatography was carried out on an Agilent 1200 Series LC (Agilent Technologies, USA) equipped with a 4.6 mm × 100 mm to 150 mm IAM.PC.DD2 column from Regis Technologies, Inc., eluting at 1.5 mL/min, eluting over a gradient of 0% – 85% MeCN with a 50 mM ammonium acetate buffer adjusted to pH 7.4 over 4.75 min.

[7] = H-D exchange NMR; assay type: physicochemical; details: 20% D2O and 80% DMSO-d6
From the text: To further confirm the solvent accessibility of the amides we performed H-D exchange experiments using SA-A1, SA-B1, and SA-B3 by adding 20% D2O to samples dissolved in DMSO-d 6 (Table and Figures S10–S12). The rate of exchange of the amide proton for deuterium is an indicator of solvent accessibility. […] In line with their observations, the Ala-1 NH exchanges rather fast in SA-A1, which is in stark contrast to Ala-1 in SA-B1 and SA-B3 where it is fully stable. […] The Ile-4 amide is always strongly shielded which is in line with it being involved in a stable hydrogen bond with the Ala-1 carbonyl group as for SA-A1. […] Unfortunately, for SA-B3 this peak overlapped with aromatic peaks prohibiting quantification.
The samples were dissolved in DMSO-d 6 and 20% D2O was added. Immediately after ^1H NMR data was collected at 0, 10, 20, 30, and 240 min. The peak area was normalized to a peak of constant height.

[8] = CDCl3, value in brackets, ref Bockus et al.
[9] = DMSO-d6, value in brackets, ref Nielsen et al.

Compound: CC[C@H](C)[C@@H]1NC(=O)[C@@H]2CCCN2C(=O)[C@H](Cc2ccccc2)NC(=O)[C@H](C)NC(=O)c2csc(n2)[C@H]([C@@H](C)CC)NC(=O)[C@@H]2CCCN2C1=O [SA-A1, Sanguinamide A] (cyclo(AFPIP[Ile(ψThz)]))
- ΔδNH/ΔT Ala-1 ([1]; CDCl3): –0.1 ppb/K
- ΔδNH/ΔT Ile-4 ([1]; CDCl3): –3.5 ppb/K
- ΔδNH/ΔT Ile-6 ([1]; CDCl3): –3.6 ppb/K
- ΔδNH/ΔT Phe-2 ([1]; CDCl3): –10.2 ppb/K
- ΔδNH/ΔT Ala-1 ([1]; DMSO-d6): –0.4 ppb/K
- ΔδNH/ΔT Ile-4 ([1]; DMSO-d6): –1.7 ppb/K
- ΔδNH/ΔT Ile-6 ([1]; DMSO-d6): –3.8 ppb/K
- ΔδNH/ΔT Phe-2 ([1]; DMSO-d6): –4.2 ppb/K
- Cell count at 10 μM [2]: 103%
- Induction at 10 μM [2]: 1.4%
- Cell count at 30 μM [2]: 97%
- Induction at 30 μM [2]: 32.6%
- Cell count at 50 μM [2]: 88%
- Induction at 50 μM [2]: 29.7%
- ΔδNH/ΔT Ala-1 [3, 8]: 0.1 ppb/K
- ΔδNH/ΔT Ile-4 [3, 8]: −3.1 ppb/K
- ΔδNH/ΔT Ile-6 [3, 8]: −3.1 ppb/K
- ΔδNH/ΔT Phe-2 [3, 8]: −9.1 ppb/K
- ΔδNH/ΔT Ala-1 [3, 9]: 0.4 ppb/K
- ΔδNH/ΔT Ile-4 [3, 9]: −1.5 ppb/K
- ΔδNH/ΔT Ile-6 [3, 9]: −4.0 ppb/K
- ΔδNH/ΔT Phe-2 [3, 9]: −4.2 ppb/K
- H-D exchange rate Ala-1 [4]: 188 min
- H-D exchange rate Ile-4 [4]: 6000 min
- H-D exchange rate Ile-6 [4]: 1500 min
- H-D exchange rate Phe-2 [4]: 380 min
- bioavailability (F) [5]: 7%
- CHI-IAM [6]: 39.71 ± 0.16
- H-D exchange rate Ala-1 [7]: 57 min
- H-D exchange rate Ile-4 [7]: > 240 min
- H-D exchange rate Ile-6 [7]: 341 min
- H-D exchange rate Phe-2 [7]: 48 min

Compound: CC[C@H](C)[C@@H]1NC(=O)[C@@H]2CCCN2C(=O)[C@H]([C@@H](C)CC)NC(=O)[C@@H]2CCCN2C(=O)[C@H](Cc2ccccc2)NC(=O)[C@H](C)NC(=O)[C@H](CS)NC1=O [SA-A3] (cyclo(AFPIPIC))
- Cell count at 10 μM [2]: 102%
- Induction at 10 μM [2]: 0.7%
- Cell count at 30 μM [2]: 102%
- Induction at 30 μM [2]: 1%
- Cell count at 50 μM [2]: 98%
- Induction at 50 μM [2]: 1%
- CHI-IAM [6]: 33.97 ± 0.13
